According to patent US20170216219A1, “THERAPEUTIC NANOPARTICLES FOR ACCUMULATION IN THE BRAIN” (UNIVERSITY OF GEORGIA RESEARCH FOUNDATION, INC., priority 2014, published 2017):

How the values were obtained:
Format in all cases: cell-based, Human
LPS stimulated NSCs = assay: Anti-inflammatory properties in LPS stimulated NSCs (cytokine ELISA); details: LPS 100 ng/mL 36 h, 1 μM
Source text: Immunosuppressant corticoid based rugs such as prednisone can exert biphasic effects on neuronal mitochondrial dynamics. A low level of prednisone and chronic high levels can attenuate various aspects of mitochondrial function. […] Inflammatory cytokines like TNF-α and IL-6 are closely linked to TBI and these cytokines have a negative effect on damaged tissue. Therefore limiting inflammatory cytokine activity is of major benefit in reducing TBI tissue damage. We used lipopolysaccharide (LPS) to stimulate TNF-α and IL-6 production in NSCs to understand the anti-inflammatory effects of prednisone-NPs and CoQ10-NPs in an in vitro model (FIG. 6C). […] The T and NT NPs containing prednisone reduced the levels of IL-6 in the LPS stimulated NSCs. The addition of T or NT-CoQ10-NPs to prednisone NPs increased the efficiency of IL-6 reduction. […] IL-10 is primarily an anti-inflammatory cytokine with potent inhibitory effects on several pro-inflammatory mediators. […] IL-12 has immune-inflammatory responses in the brain; however the consequences of local production of IL-12 on spontaneous immune responses are unknown. […] The exact mechanism why only mitochondria targeted therapy produces IL-12 from the NSCs warrants further investigation.
Human induced pluripotent stem cell-derived neural stem cells (HIP™ hNSC BC1, GlobalStem®, Rockville, Md.) used for the in vitro portion of this study. NSCs were maintained on matrigel-coated tissue culture dishes in neural stem cell media composed of neural basal medium, 2% B-27 supplement, 1% non-essential amino acids, 2 mM L-alanine/L-glutamine, 1% penicillin/streptomycin, and 20 ng/mL bFGF. The media was changed every other day. When NSCs reached confluence (approximately every 4 to 5 days), cells were enzymatically passaged using Accutase and removed from the dish using a cell scrapper. Cells were split at a 1:4 ratio. […]
NSCs were plated on each well of a 12-well plate at a density of […] per well and allowed to grow overnight (NSC basal media in 200 μL). […] The absorbance was recorded at 450 nm using a BioTek Synergy HT well plate reader.

NSCs [1] = assay: Cytotoxicity by MTT assay against NSCs; details: concentrations used in the cytokine studies
Experimental: Human induced pluripotent stem cell-derived neural stem cells (HIP™ hNSC BC1, GlobalStem®, Rockville, Md.) used for the in vitro portion of this study. NSCs were maintained on matrigel-coated tissue culture dishes in neural stem cell media composed of neural basal medium, 2% B-27 supplement, 1% non-essential amino acids, 2 mM L-alanine/L-glutamine, 1% penicillin/streptomycin, and 20 ng/mL bFGF. The media was changed every other day. When NSCs reached confluence (approximately every 4 to 5 days), cells were enzymatically passaged using Accutase and removed from the dish using a cell scrapper. Cells were split at a 1:4 ratio. To prepare NSCs for MTT and ROS Reduction assays, NSCs were plated in matrigel-coated 96-well dishes at a ratio of 40,000 cells per well in neural stem cell media.
The cytotoxic behavior of all the NPs was evaluated by using the MTT assay against NSCs. Cells (40,000 cells/well) were seeded on a 96-well plate in 100 μL of NSC basal complete medium and incubated for 24 h. The cells were treated with NPs at varying concentrations (with respect to prednisone and CoQ10) and incubated at 37° C. […] The medium was removed, the cells were lysed with 100 μL of DMSO, and the absorbance of the purple formazan was recorded at 550 nm using a Bio-Tek Synergy HT microplate reader. Each well was performed in triplicate and a background reading was recorded at 800 nm.

NSCs [2] = assay: Antioxidative properties by Seahorse analyzer (OCR) in H2O2 treated NSCs; details: H2O2 10 μM, 1 μM with respect to CoQ10
Source text: Oxidative stress induced by the production of ROS including free radicals and peroxides is one of the major mechanisms, which leads to neuronal destruction and is closely related to apoptosis and necrosis in these cells during TBI. Mitochondria are well known to be a major source of ROS production. CoQ10 is endogenously synthesized in mammalian mitochondria, acts as both antioxidant and pro-oxidant, and is involved in shuttling electrons from complexes I or II and a number of other electron donors, including electron transfer factor, which moves electrons from fatty acid beta oxidation. CoQ10 is found in all cell and organelle membranes, where it can participate in redox shuttling. However, defects in CoQ10 biosynthesis can be found during TBI. […]
T-CoQ10-NPs, NT-CoQ10-NPs, and free CoQ10 were tested for their ability to reduce oxidative stress in NSCs. […] The cells were monitored for changes in oxygen consumption rate (OCR) with respect to time. A basal reading was acquired for 45 min and then H2O2(10 μM) was injected. The OCR was monitored for 90 min and T-CoQ10-NPs (1 μM with respect to CoQ10), NT-CoQ10-NPs (1 μM with respect to CoQ10), and free CoQ10 (1 μM) were injected. The OCR levels were then further measured for 4.5 h. As a control, cells were also monitored with no treatment or only treatment of H2O2(10 μM).

SMILES | IL-10 (LPS stimulated NSCs) | cytotoxic effects (MTT) (NSCs [1]) | effect on H2O2 mediated oxidative stress (OCR) (NSCs [2]) | TNF-α secretion induced by LPS (LPS stimulated NSCs)
COC1=C(OC)C(=O)C(C/C=C(\C)CC/C=C(\C)CC/C=C(\C)CC/C=C(\C)CC/C=C(\C)CC/C=C(\C)CC/C=C(\C)CC/C=C(\C)CC/C=C(\C)CCC=C(C)C)=C(C)C1=O [CoQ10, coenzyme Q10] | elevated | did not show any cytotoxic effects | less efficiency in oxidative stress reduction | 
C[C@]12C=CC(=O)C=C1CC[C@@H]1[C@@H]2C(=O)C[C@@]2(C)[C@H]1CC[C@]2(O)C(=O)CO [prednisone] | elevated | did not show any cytotoxic effects |  | significantly reduced
